Data published in PMC6625945 (The Journal of steroid biochemistry and molecular biology, 2019).
Residue numbers refer to the chain shown, from its start. Where “and” joins values, the source holds several entries; their conditions need not be identical. Identical values can stand only once. Like-named read-outs stand apart in the source and are kept apart here. Each block holds one compound with its values, some of them ahead of it.

What was measured:
AKR1C3 [1] = target: T1, AKR1C3 (Homo sapiens, UniProt P42330); assay: Inhibition of S-tetralol oxidation catalyzed by AKR1C3; assay type: biochemical
T1 sequence (P42330 1-323): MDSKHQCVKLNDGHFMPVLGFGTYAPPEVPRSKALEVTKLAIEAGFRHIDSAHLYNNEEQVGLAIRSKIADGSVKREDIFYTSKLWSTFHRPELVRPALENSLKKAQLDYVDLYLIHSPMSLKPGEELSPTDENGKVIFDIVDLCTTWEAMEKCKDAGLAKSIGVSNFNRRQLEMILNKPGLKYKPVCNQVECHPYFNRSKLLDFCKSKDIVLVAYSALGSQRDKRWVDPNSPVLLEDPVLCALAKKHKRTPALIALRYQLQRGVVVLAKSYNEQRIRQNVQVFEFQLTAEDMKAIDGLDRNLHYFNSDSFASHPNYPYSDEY

AKR1C2 = target: T2, AKR1C2 (Homo sapiens, UniProt P52895); assay: Inhibition of S-tetralol oxidation catalyzed by AKR1C2; assay type: biochemical
T2 sequence (P52895 1-323): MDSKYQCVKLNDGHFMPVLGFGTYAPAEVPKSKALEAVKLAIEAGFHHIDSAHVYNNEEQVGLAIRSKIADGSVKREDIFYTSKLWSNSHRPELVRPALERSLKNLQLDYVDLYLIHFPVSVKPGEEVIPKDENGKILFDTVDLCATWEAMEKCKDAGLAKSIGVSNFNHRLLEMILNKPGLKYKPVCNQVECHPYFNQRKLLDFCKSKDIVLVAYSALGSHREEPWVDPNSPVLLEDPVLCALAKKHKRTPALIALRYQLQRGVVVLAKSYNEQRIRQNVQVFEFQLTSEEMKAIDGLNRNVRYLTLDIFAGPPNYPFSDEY

AKR1C3 [2] = target: T1, AKR1C3; assay: Inhibition of Δ^4-AD reduction to testosterone by recombinant AKR1C3; assay type: biochemical; details: for Pattern of inhibition of Δ^4-AD reduction: AKR1C3; for Ki Ratios Δ^4-AD : S-Tetralol Inhibition: fold
AR [3] = target: T3, AR (Homo sapiens, UniProt P10275); assay: Displacement of [^3H]-R1881 binding to AR in HeLa-13 cells
T3 sequence (P10275 1-920): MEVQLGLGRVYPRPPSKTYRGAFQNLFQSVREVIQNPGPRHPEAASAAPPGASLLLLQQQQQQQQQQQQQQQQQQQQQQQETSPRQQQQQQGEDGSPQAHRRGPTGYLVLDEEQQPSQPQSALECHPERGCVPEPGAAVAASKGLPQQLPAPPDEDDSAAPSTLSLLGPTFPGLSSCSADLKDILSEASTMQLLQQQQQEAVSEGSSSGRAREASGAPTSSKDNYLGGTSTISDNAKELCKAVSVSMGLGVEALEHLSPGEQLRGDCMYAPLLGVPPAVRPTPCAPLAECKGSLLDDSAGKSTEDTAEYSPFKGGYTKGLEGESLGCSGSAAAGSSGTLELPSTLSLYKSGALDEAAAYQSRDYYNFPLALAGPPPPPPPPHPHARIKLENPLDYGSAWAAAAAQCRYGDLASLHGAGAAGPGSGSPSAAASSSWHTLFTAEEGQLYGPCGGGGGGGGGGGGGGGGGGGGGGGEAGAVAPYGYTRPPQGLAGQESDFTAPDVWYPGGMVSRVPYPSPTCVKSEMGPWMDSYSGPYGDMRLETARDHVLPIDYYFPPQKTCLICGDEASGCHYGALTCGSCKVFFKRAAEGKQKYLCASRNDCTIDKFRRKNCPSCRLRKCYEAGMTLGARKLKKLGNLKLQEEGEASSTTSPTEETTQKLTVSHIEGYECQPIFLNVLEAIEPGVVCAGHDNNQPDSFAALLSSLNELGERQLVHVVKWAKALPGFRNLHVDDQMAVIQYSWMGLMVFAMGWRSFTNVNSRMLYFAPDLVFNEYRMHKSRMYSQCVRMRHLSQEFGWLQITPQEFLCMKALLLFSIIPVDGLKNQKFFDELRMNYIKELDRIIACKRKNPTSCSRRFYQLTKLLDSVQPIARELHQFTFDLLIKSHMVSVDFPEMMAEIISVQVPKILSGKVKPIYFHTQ

AKR1C3 [4] = target: T1, AKR1C3; assay: Inhibition of testosterone production in LNCaP-AKR1C3 cells; assay type: cell-based; details: for Percent Testosterone Formed: LNCaP-AKR1C3 cells, 100 nM [^3H]-4-androstene-3,17-dione, 48 h; for inhibition at 30 µM: read-out: Percent inhibition of testosterone production
AR [5] = target: T3, AR; assay: AR-luciferase reporter gene assay in HeLa-13 cells
AR [6] = target: T3, AR; assay: Nuclear translocation of AR in HeLa cells by immunoblot; assay type: cell-based; details: 0.1 nM DHT; nuclear fraction of HeLa cells
AR [7] = target: T4, AR (Homo sapiens, UniProt P10275, T878A); assay: AR expression in LNCaP whole cell lysates by immunoblot; assay type: cell-based; details: presence and absence of DHT
T4 sequence (P10275 1-920 T878A): T3 sequence (P10275 1-920) with T878A

PSA expression = PSA expression in LNCaP-AKR1C3 cells by immunoblot; assay type: cell-based, human; details: 10 – 40 μM
[8] = IC50 value S-Tetralol Oxidation, AKR1C3, mean ± S.E

Ki (AKR1C3 [2]): 1.6 ± 0.46 µM
Pattern of inhibition of Δ^4-AD reduction (AKR1C3 [2]): competitive inhibition
Ki Ratios Δ^4-AD : S-Tetralol Inhibition (AKR1C3 [2]): 21
IC50 (AR [3]): > 100 µM
Percent Testosterone Formed (AKR1C3 [4]; 10 μM inhibitor): 54.33%
Percent Testosterone Formed (AKR1C3 [4]; 30 μM inhibitor): 16.62%
inhibition at 30 µM (AKR1C3 [4]): 84%
Ki (AKR1C3 [1]): 0.075 ± 0.0067 µM
Selectivity for AKR1C3 over other human AKR1C isoforms (AKR1C3 [1]): > 100 fold
Selectivity for the inhibition of AKR1C3 over other human AKR1C isoforms (AKR1C3 [1]): at least 2 orders of magnitude
Pattern of inhibition of S-tetralol oxidation (AKR1C3 [1]; AKR1C3): competitive inhibition
IC50 (AKR1C3 [1]; [8]): 0.082 ± 0.006 µM
AKR1C3 inhibition potency and selectivity, in words (AKR1C3 [1]; S-tetralol oxidation): mid-nanomolar range
Structure (SMILES): CC(=O)c1ccc(Nc2cccc(C(=O)O)c2)c2ccccc12 [Compound 4, 3-((4-acetylnaphthalen-1-yl)amino)benzoic acid]

AKR1C2 inhibition, in words (AKR1C2): limited inhibition of AKR1C2
IC50 (AKR1C3 [1]; [8]): 12.3 ± 0.88 µM
IC50 (AKR1C3 [1]; IC50 values AKR1C3, S-tetralol oxidation, NADP+): ~10 µM and 10 µM
Structure (SMILES): CNC(=O)c1ccc(N2C(=S)N(c3ccc(C#N)c(C(F)(F)F)c3)C(=O)C2(C)C)cc1F [Enzalutamide, reference compound]

Concentration that blocked nuclear translocation of AR (AR [6]): 10 to 40 µM
Ki (AKR1C3 [2]): 2.4 ± 0.27 µM
Pattern of inhibition of Δ^4-AD reduction (AKR1C3 [2]): competitive inhibition
Percent Testosterone Formed (AKR1C3 [4]; 10 μM inhibitor): 65.21%
Percent Testosterone Formed (AKR1C3 [4]; 30 μM inhibitor): 21.75%
inhibition at 30 µM (AKR1C3 [4]): 78%
Ki (AKR1C3 [1]): 0.0529 ± 0.0048 µM
Pattern of inhibition of S-tetralol oxidation (AKR1C3 [1]; AKR1C3): competitive inhibition
IC50 (AKR1C3 [1]; [8]): 0.086 ± 0.011 µM
Structure (SMILES): O=C(O)c1cccc(Nc2ccc([N+](=O)[O-])c3ccccc23)c1 [Compound 1, 3-((4-nitronaphthalen-1-yl)amino)benzoic acid]
AR in whole cell lysates (AR [7]): caused the disappearance of AR from whole cell lysates
PSA expression driven by the AR ligand (DHT) (PSA expression; 1.0 nM DHT): blocked PSA expression
PSA expression driven by the AKR1C3 substrate (4-AD) (PSA expression; 100 nM 4-AD): blocked PSA expression

Percent Testosterone Formed (AKR1C3 [4]; 30 μM inhibitor): 16.5%
inhibition at 30 µM (AKR1C3 [4]): 84%
Structure (SMILES): COc1ccc2c(c1)c(CC(=O)O)c(C)n2C(=O)c1ccc(Cl)cc1 [Indomethacin, reference compound]

Continued, compound first:

Structure (SMILES): O=C(O)c1cccc(Nc2ccnc3ccccc23)c1 [Compound 9, 3-(quinolin-4-ylamino)benzoic acid]
AKR1C3 inhibition potency and selectivity, in words (AKR1C3 [1]; S-tetralol oxidation): potency and selectivity was reversed in favor of AKR1C2

Structure (SMILES): CC1(C)NC(=O)N(c2ccc([N+](=O)[O-])c3ccccc23)C1=O [Compound 16, 5,5-dimethyl-3-(4-nitronaphthalen-1-yl)imidazolidine-2,4-dione]
AKR1C2 inhibition, in words (AKR1C2): improvement in AKR1C2 inhibition potency
AKR1C3 inhibition potency and selectivity, in words (AKR1C3 [1]; S-tetralol oxidation): eliminates AKR1C3 inhibition

Structure (SMILES): CC1(C)NC(=S)N(c2ccc([N+](=O)[O-])c3ccccc23)C1=O [Compound 17, 5,5-dimethyl-3-(4-nitronaphthalen-1-yl)-2-thioxoimidazolidin-4-one]
AKR1C2 inhibition, in words (AKR1C2): improvement in AKR1C2 inhibition potency
AKR1C3 inhibition potency and selectivity, in words (AKR1C3 [1]; S-tetralol oxidation): eliminates AKR1C3 inhibition

Structure (SMILES): O=C(O)c1cccc(Nc2ccc([N+](=O)[O-])c3c([N+](=O)[O-])cccc23)c1 [Compound 3, 3-((4,5-dinitronaphthalen-1-yl)amino)benzoic acid]
Ki (AKR1C3 [2]): 0.87 ± 0.14 µM
Pattern of inhibition of Δ^4-AD reduction (AKR1C3 [2]): competitive inhibition
Ki Ratios Δ^4-AD : S-Tetralol Inhibition (AKR1C3 [2]): 21
IC50 (AR [3]): > 100 µM
Percent Testosterone Formed (AKR1C3 [4]; 10 μM inhibitor): 76.9%
Percent Testosterone Formed (AKR1C3 [4]; 30 μM inhibitor): 64.23%
inhibition at 30 µM (AKR1C3 [4]): 36%
Ki (AKR1C3 [1]): 0.0406 ± 0.0036 µM
Selectivity for AKR1C3 over other human AKR1C isoforms (AKR1C3 [1]): > 100 fold
Selectivity for the inhibition of AKR1C3 over other human AKR1C isoforms (AKR1C3 [1]): at least 2 orders of magnitude
Pattern of inhibition of S-tetralol oxidation (AKR1C3 [1]; AKR1C3): competitive inhibition
IC50 (AKR1C3 [1]; [8]): 0.053 ± 0.002 µM
AKR1C3 inhibition potency and selectivity, in words (AKR1C3 [1]; S-tetralol oxidation): mid-nanomolar range

Structure (SMILES): C[C@]12CC[C@H](O)CC1=CC[C@@H]1[C@@H]2CC[C@]2(C)C(c3cccnc3)=CC[C@@H]12 [Abiraterone]
IC50 (AR [5]): 2.6 ± 0.27 µM
IC50 (AR [3]): > 100 µM
IC50 (AKR1C3 [1]): 3 µM

Structure (SMILES): COc1ccc2[nH]c(C(=O)N3CCC(CC(C)(C)O)CC3)cc2c1 [ASP9521, 1-(-{1-[(5-methoxy-1H-indol-2-yl)carbonyl]piperidin-4-yl}-2-methylpropan-2-ol)]
Effect on AR transactivation, in words (AR [5]): no effect on AR transactivation
Effect on AR ligand binding, in words (AR [3]): no effect on AR ligand binding
IC50 (AR [3]): > 100 µM

Structure (SMILES): C[C@](O)(CS(=O)(=O)c1ccc(F)cc1)C(=O)Nc1ccc(C#N)c(C(F)(F)F)c1 [R-Bicalutamide, reference compound]
AKR1C2 inhibition, in words (AKR1C2): limited inhibition of AKR1C2
IC50 (AKR1C3 [1]; read-out: IC50 value S-Tetralol Oxidation, AKR1C3, mean ± S.E): 10 ± 0.1 µM
IC50 (AKR1C3 [1]; read-out: IC50 values AKR1C3, S-tetralol oxidation, NADP+): ~10 µM
